Source: ChEMBL document CHEMBL5352406 (Eur J Med Chem, 2022)

Experiments:
[1] = system: HCT-116; experiment: Antiproliferative activity against human HCT-116 cells assessed as cell growth inhibition after 72 hrs by MTT assay; format: functional
[2] = target: Acetylcholinesterase (Electrophorus electricus, UniProt O42275); experiment: Inhibition of electric eel AChE using acetylthiocholine […] as substrate for 20 mins by Ellman's method
[3] = target: Cholinesterase (Equus caballus, UniProt P81908); experiment: Inhibition of equine serum BuChE using […] as substrate for 20 mins by Ellman's method
[4] = target: CDK9/cyclin T1 (Homo sapiens) (UniProt O60563+P50750); experiment: Inhibition of CDK9/CyclinT1 (unknown origin) at 500 nM by ADP-Glo kinase assay relative to control; format: protein-complex assay
[5] = target: Cyclin-dependent kinase 13/Cyclin-K (Homo sapiens) (UniProt Q14004+O75909); experiment: Inhibition of CDK13/Cyclin K (unknown origin) at 500 nM by ADP-Glo kinase assay relative to control; format: protein-complex assay
[6] = target: CDK18/Cyclin Y (Homo sapiens) (UniProt Q07002+Q8ND76); experiment: Inhibition of CDK18/Cyclin Y (unknown origin) at 500 nM by ADP-Glo kinase assay relative to control; format: protein-complex assay
[7] = target: Cyclin-dependent kinase 5/CDK5 activator 1 (Homo sapiens) (UniProt Q00535+Q15078); experiment: Inhibition of CDK5/p35 NCK (unknown origin) at 500 nM by ADP-Glo kinase assay relative to control; format: protein-complex assay
[8] = target: CDK4/Cyclin D3 (Homo sapiens) (UniProt P11802+P30281); experiment: Inhibition of CDK4/Cyclin D3 (unknown origin) at 500 nM by ADP-Glo kinase assay relative to control; format: protein-complex assay
[9] = system: HCT-116; experiment: Induction of apoptosis in human HCT-116 cells assessed as viable cells at 20 nM measured after 48 hrs by Annexin V-FITC/PI assay (reference value: 88.5%); format: functional; conditions: read-out: Activity
[10] = system: HCT-116; experiment: Cell cycle arrest in human HCT-116 cells assessed as accumulation of cells at S phase at 10 nM measured after 48 hrs by flow cytometry (reference value: 31.43%); format: functional
[11] = system: HCT-116; experiment: Cell cycle arrest in human HCT-116 cells assessed as accumulation of cells at […] phase at 10 nM measured after 48 hrs by flow cytometry (reference value: 6.39%); format: functional
[12] = system: HCT-116; experiment: Cell cycle arrest in human HCT-116 cells assessed as accumulation of cells at G0-G1 phase at 20 nM measured after 48 hrs by flow cytometry (reference value: 62.18%); format: functional
[13] = system: HCT-116; experiment: Cell cycle arrest in human HCT-116 cells assessed as accumulation of cells at […] phase at 20 nM measured after 48 hrs by flow cytometry (reference value: 6.39%); format: functional
[14] = Acute toxicity in Kunming mouse assessed as survival at 20 mg/kg, po measured for 2 weeks; format: organism-based; conditions: in vivo
[15] = Acute toxicity in Kunming mouse assessed as survival at 46 mg/kg, po measured for 2 weeks; format: organism-based; conditions: in vivo
[16] = Acute toxicity in Kunming mouse assessed as survival at 69 mg/kg, po measured for 2 weeks; format: organism-based; conditions: in vivo
[17] = Acute toxicity in Kunming mouse assessed as survival at 159 mg/kg, po measured for 2 weeks; format: organism-based; conditions: in vivo
[18] = Acute toxicity in Kunming mouse assessed as behavior change at 20 to 105 mg/kg, po measured for 2 weeks; format: organism-based; conditions: in vivo, 336 h, dose 20-105 mg/kg
[19] = Half life in Sprague-Dawley rat at 2 mg/kg, iv; format: ADME, organism-based; conditions: in vivo
[20] = Half life in Sprague-Dawley rat at 20 mg/kg, po; format: ADME, organism-based; conditions: in vivo
[21] = Tmax in Sprague-Dawley rat at 20 mg/kg, po; format: ADME, organism-based; conditions: in vivo
[22] = Cmax in Sprague-Dawley rat at 2 mg/kg, iv; format: ADME, organism-based; design: dose 2 mg/kg, route iv; conditions: in vivo
[23] = Cmax in Sprague-Dawley rat at 20 mg/kg, po; format: ADME, organism-based; design: dose 20 mg/kg, route po; conditions: in vivo
[24] = system: HCT-116; experiment: Antitumor activity against human HCT-116 cells xenografted in BALB/cA-nu mouse tumor model assessed as tumor weight growth inhibition at 10 mg/kg, intragastric administration for 21 days relative to control; format: functional; conditions: HCT-116, 504 h, route ig, time 21 day, read-out: TGI
[25] = Toxicity in BALB/cA-nu mouse xenografted with human HCT116 cells assessed as behavioral changes at 10 mg/kg, intragastric administration for 21 days; format: organism-based, HCT-116; conditions: in vivo, po, 504 h, time 21 day
[26] = Toxicity in BALB/cA-nu mouse xenografted with human HCT116 cells assessed as liver injury by measuring ALT level at 10 mg/kg, intragastric administration for 21 days; format: organism-based, HCT-116; conditions: in vivo, po, 504 h, time 21 day

Sequence of Cyclin-dependent kinase 13/Cyclin-K (Homo sapiens) (O75909 whole entry, looked up): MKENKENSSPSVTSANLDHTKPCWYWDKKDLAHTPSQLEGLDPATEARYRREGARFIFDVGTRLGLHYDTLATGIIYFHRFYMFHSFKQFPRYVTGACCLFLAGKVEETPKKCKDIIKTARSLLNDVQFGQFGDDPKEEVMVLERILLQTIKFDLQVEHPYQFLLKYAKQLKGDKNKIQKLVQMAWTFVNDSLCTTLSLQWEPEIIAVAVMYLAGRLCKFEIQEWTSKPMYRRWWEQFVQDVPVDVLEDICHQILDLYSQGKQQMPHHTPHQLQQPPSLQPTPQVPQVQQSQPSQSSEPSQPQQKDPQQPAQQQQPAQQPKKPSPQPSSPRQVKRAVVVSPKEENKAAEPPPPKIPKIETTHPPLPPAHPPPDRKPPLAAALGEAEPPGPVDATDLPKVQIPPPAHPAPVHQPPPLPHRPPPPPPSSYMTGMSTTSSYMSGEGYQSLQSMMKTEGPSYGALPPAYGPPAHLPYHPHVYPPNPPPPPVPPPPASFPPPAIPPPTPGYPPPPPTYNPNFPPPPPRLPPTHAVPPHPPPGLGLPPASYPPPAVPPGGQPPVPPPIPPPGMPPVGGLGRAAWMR
Sequence of Cyclin-dependent kinase 13/Cyclin-K (Homo sapiens) (Q14004 whole entry, looked up): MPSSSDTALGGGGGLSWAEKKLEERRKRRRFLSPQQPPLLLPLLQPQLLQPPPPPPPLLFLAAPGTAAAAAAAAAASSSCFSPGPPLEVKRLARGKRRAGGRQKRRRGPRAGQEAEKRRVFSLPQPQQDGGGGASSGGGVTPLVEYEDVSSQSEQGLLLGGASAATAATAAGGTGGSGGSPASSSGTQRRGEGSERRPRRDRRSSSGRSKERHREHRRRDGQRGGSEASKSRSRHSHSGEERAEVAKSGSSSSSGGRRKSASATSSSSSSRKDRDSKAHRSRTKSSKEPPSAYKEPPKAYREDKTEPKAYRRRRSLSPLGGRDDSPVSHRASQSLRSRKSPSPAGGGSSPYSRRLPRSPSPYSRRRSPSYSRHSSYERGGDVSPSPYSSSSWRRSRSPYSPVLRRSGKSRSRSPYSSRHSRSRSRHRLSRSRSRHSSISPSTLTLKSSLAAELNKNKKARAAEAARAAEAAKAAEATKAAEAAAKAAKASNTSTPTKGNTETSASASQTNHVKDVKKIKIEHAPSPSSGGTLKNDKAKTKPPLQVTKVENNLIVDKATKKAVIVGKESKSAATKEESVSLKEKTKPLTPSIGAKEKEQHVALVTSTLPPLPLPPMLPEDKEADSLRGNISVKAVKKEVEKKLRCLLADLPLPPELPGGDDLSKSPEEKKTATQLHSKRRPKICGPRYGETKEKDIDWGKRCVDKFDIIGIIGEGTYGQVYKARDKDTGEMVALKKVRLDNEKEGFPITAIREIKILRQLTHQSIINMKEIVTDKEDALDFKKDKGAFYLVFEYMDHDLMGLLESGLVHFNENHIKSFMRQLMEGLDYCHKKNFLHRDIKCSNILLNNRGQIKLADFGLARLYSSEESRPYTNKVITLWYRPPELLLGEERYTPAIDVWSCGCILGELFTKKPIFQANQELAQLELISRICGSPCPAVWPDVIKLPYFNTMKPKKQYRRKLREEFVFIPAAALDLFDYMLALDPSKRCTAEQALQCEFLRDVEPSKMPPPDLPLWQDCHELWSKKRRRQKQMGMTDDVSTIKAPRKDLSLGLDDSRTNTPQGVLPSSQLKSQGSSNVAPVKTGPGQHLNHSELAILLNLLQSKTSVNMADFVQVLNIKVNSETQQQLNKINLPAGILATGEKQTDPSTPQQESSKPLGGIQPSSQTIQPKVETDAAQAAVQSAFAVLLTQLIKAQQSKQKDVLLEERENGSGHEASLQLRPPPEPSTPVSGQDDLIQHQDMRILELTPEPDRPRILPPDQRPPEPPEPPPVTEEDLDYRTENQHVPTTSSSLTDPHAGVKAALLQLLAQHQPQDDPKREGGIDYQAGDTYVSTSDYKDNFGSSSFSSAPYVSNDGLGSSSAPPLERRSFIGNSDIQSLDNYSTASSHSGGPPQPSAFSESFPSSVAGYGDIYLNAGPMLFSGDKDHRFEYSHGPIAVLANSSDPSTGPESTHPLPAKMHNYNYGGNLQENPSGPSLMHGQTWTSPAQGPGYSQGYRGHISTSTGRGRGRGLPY
Sequence of Acetylcholinesterase (O42275 whole entry): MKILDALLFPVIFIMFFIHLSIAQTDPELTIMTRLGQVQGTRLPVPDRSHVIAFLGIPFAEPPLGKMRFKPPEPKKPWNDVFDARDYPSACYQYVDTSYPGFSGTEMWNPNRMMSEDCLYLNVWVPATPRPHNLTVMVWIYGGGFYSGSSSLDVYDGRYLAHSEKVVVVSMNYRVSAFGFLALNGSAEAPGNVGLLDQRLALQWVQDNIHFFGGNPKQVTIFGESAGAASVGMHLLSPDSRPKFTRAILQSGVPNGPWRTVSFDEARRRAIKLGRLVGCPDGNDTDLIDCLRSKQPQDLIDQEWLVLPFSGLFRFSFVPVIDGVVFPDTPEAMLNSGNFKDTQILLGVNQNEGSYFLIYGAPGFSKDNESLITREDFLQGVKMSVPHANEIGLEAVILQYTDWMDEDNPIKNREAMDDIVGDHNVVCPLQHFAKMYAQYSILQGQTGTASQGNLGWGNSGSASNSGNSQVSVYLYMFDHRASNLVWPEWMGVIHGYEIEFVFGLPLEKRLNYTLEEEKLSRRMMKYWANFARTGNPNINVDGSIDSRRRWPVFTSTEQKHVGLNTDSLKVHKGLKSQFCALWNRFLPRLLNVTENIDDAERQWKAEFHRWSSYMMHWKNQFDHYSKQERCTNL
Sequence of Cholinesterase (P81908 whole entry): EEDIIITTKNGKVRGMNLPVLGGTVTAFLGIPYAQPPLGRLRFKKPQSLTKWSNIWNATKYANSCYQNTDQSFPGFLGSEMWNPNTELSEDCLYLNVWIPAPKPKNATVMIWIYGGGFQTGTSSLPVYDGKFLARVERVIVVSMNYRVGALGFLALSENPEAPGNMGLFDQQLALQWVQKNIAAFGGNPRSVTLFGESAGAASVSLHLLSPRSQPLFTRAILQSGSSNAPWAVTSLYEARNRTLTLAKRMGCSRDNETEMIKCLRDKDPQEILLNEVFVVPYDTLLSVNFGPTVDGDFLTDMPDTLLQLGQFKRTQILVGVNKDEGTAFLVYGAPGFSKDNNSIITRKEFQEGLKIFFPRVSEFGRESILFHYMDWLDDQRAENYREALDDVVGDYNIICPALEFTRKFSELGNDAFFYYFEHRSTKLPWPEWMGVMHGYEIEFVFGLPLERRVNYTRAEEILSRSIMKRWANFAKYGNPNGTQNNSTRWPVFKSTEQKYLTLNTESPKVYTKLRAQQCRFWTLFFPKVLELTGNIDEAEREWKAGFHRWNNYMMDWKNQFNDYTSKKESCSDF
Sequence of Cyclin-dependent kinase 5/CDK5 activator 1 (Homo sapiens) (Q00535 whole entry): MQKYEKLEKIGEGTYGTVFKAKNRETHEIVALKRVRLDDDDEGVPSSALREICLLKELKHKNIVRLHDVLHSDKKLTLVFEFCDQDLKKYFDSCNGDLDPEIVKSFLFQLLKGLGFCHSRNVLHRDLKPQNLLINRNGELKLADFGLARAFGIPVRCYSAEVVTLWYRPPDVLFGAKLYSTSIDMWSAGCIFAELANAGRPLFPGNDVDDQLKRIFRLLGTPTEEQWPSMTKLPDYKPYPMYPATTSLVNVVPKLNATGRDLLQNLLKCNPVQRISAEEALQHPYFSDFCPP
Sequence of Cyclin-dependent kinase 5/CDK5 activator 1 (Homo sapiens) (Q15078 99-307 partner limits assumed): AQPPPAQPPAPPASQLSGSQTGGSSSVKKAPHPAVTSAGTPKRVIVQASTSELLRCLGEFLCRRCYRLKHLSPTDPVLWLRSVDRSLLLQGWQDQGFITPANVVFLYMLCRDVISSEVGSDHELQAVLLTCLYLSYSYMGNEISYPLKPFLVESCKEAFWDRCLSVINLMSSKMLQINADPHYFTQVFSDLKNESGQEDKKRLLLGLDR

Cl.N[C@H]1CCN(c2c3c(nc4ccc(-c5ccnc(NC(=O)C6CC6)n5)cc24)CCCCC3)C1
GI50 [1]: 6 nM
IC50 [2]: 19000 nM
IC50 [3]: 2770 nM
inhibition [4]: 99.8%
inhibition [5]: 80.9%
inhibition [6]: 68.1%
inhibition [7]: 41.4%
inhibition [8]: 29.4%
viability at 0.02 µM [9]: 52.5%
Activity [10]: 42.75%
Activity [11]: 10.6%
Activity [12]: 37.51%
Activity [13]: 13.11%
survival at 336 h [14]: 100%
survival at 336 h [15]: 100%
survival at 336 h [16]: 100%
survival at 336 h [17]: 0%
Activity [18]: Non-Toxic
half-life [19]: 0.461 h
half-life [20]: 1.77 h
Tmax [21]: 1 h
Cmax [22]: 206 ng/mL
Cmax [23]: 67.8 ng/mL
inhibition in vivo at 10 mg/kg [24]: 62.4%
Activity [25]: Non-Toxic
Activity [26]: Non-Toxic
